Source: patent US20240116877A1, “KIT KINASE INHIBITORS AND METHODS OF USE THEREOF” (Deciphera Pharmaceuticals, LLC, priority 2021, published 2024)
Read-outs that look alike come from different tables or passages of the source.

How the values were obtained:
Ba/F3 KIT mutant cells = assay: Ba/F3 mutant KIT Cell Proliferation Assays (resazurin); type: cell-based; conditions: Mus musculus, BaF3
Description: Ba/F3 KIT Mutant Cell Line Transduction and Expansion
Several different KIT cDNA encoding various primary and secondary mutations were cloned into a pLV(Exp]-CMV>(cDNA):IRES:puro vector. These vectors were constructed and packaged by VectorBuilder.
Exponentially grown Ba/F3 cells (1×10^6 cells in 1 ml medium) were infected with 60 μl of viral suspension in a 6-well plate in the presence of mIL-3 (10 ng/ml) and polybrene (7.5 μg/ml) (Vector Builder) and incubated for 16 h. After 16 h, the cells were centrifuged, and viral supernatant was discarded. The cells were then re-suspended in fresh medium and allowed to recover for another day. After 72 h post infection, the cells were seeded with complete medium with mIL-3 and with 1 μg/ml puromycin added to medium for selection. After 48 h, cells without viral infection die, whereas successfully transduced cells were collected and changed to fresh medium with 5 ng/ml of IL-3. After a week or two with gradual withdrawal of mIL3 the cells that can continue to proliferate in the absence of mIL3 were exponentially expanded and were frozen down for banking.
Ba/F3 mutant KIT Cell Proliferation Assays
(§1) A serial dilution of test compound was dispensed into a 384-well black clear bottom plate (Corning, Corning, NY). Six hundred and twenty-five cells were added per well in 50 μL complete growth medium. Plates were incubated for 68 h at 37° C., 5% CO2, 95% humidity. At the end of the incubation period 10 μL of a 440 μM solution of resazurin (Sigma, St. Louis, MO) in PBS was added to each well and incubated for an additional 5 h at 37° C., 5% CO2, 95% humidity. Plates were read on a Synergy2 reader (Biotek, Winooski, VT) using an excitation of 540 nm and an emission of 600 nm. Data was analyzed using Prism software (Graphpad, San Diego, CA) to calculate IC50 values.

c-KIT kinase (uKIT) = c-KIT kinase (uKIT) (Homo sapiens (Human), UniProt P10721); assay: Biochemical Assay for uKIT (coupled pyruvate kinase/lactate dehydrogenase assay); conditions: Inhibition of biochemical activity of uKIT kinase; 1 mM ATP
Chain of c-KIT kinase (uKIT) (P10721 other isoform, or with tags, fused parts or gaps): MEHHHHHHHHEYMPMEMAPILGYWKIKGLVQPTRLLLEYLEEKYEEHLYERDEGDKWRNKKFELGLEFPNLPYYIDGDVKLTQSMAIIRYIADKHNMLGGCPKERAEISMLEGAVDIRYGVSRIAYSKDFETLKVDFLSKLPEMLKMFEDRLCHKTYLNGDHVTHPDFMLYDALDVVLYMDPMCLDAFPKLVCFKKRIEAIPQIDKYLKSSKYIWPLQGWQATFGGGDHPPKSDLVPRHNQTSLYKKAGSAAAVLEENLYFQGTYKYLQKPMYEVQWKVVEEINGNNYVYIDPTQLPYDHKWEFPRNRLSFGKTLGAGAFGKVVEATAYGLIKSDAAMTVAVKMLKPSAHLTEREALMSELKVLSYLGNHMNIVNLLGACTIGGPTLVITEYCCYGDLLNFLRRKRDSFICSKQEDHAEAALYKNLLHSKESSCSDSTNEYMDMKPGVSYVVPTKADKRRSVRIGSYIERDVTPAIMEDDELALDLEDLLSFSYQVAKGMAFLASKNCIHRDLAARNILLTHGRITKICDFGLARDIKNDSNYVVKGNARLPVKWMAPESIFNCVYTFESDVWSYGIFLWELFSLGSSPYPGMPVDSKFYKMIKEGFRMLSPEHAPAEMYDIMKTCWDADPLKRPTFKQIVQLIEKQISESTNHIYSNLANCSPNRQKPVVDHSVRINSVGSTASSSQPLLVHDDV
Description: Biochemical Assay for uKIT
Activity of c-KIT kinase (SEQ. ID NO. 1 or SEQ. ID NO. 2) was determined spectroscopically using a coupled pyruvate kinase/lactate dehydrogenase assay that continuously monitors the ATP hydrolysis-dependent oxidation of NADH (e.g., Schindler et al. Science (2000) 289: 1938-1942). Assays were conducted in 384-well plates (100 μL final volume) using 16 nM (Decode, SEQ ID No. 1) or 4.36 nM (Signal Chem, SEQ. ID No. 2), 0.7 mg/mL PE4Y substrate, 1.5 units pyruvate kinase, 2.1 units lactate dehydrogenase, 1 mM phosphoenol pyruvate, 0.28 mM NADH and 1 mM ATP in assay buffer (100 mM Tris, pH 7.5, 15 mM MgCl2, 0.5 mM DTT, 0.1% octyl-glucoside, 0.002% (w/v) BSA, and 0.002% Triton X-100). Inhibition of KIT was measured by adding serial diluted test compound (final assay concentration of 1% DMSO). A decrease in absorption at 340 nm was monitored continuously for 6 h at 30° C. on a multi-mode microplate reader (BioTek). The reaction rate was calculated using the 2-3 h time frame. The reaction rate at each concentration of compound was converted to percent inhibition using controls (i.e., reaction with no test compound and reaction with a known inhibitor) and IC50 values were calculated using software routines in Prism (GraphPad software).

GIST 430 cells = assay: GIST 430 Cell Proliferation Assay (resazurin); type: cell-based; conditions: Homo sapiens; GIST430 cell proliferation
Description: GIST 430 Cell Proliferation Assay
as §1, with “a 96-well” for “a 384-well”, “NY). Five thousand” for “NY). Six hundred and twenty-five”, “in 200” for “in 50”, “for 115” for “for 68”, “at 37 degrees Celsius,” for “at 37° C.,”, “period 40” for “period 10”

[1] = Ba/F3 KIT AYdup-D816G mutant cell proliferation, read-out: AYdup-D816G IC50
[2] = Ba/F3 KIT AYdup-V654A mutant cell proliferation, read-out: AYdup-V654A IC50
[3] = Ba/F3 KIT exon11del-V654A mutant cell proliferation, read-out: exon11del-V654A IC50
[4] = Ba/F3 KIT exon11del-Y823D mutant cell proliferation, read-out: exon11del-Y823D IC50
[5] = Ba/F3 KIT AYdup mutant cell proliferation, read-out: AYdup IC50

`COCCOc1cc(F)c2c(Nc3ccc(NC(=O)NC4CCC(C(F)(F)F)CC4)cc3)ncnc2c1` (stereo not drawn) [Example 15] was tested, and the IC50 (Ba/F3 KIT mutant cells; [1]) was 10 to 100 nM, the IC50 (Ba/F3 KIT mutant cells; [2]) was 10 to 100 nM and the IC50 (Ba/F3 KIT mutant cells; [3]) was 10 to 100 nM. It also gave an IC50 (Ba/F3 KIT mutant cells; [4]) of 100 to 1000 nM, an IC50 (c-KIT kinase (uKIT)) of at most 10 nM and an IC50 (GIST 430 cells) of 10 to 100 nM.

`COCCOc1cc(F)c2c(Nc3ccc(NC(=O)CCCC(C)(C)C)cc3)ncnc2c1` [Example 16] showed an IC50 (Ba/F3 KIT mutant cells; [1]) of at most 10 nM, an IC50 (Ba/F3 KIT mutant cells; [2]) of 10 to 100 nM and an IC50 (Ba/F3 KIT mutant cells; [3]) of at most 10 nM. For the same compound, the IC50 (Ba/F3 KIT mutant cells; [4]) was 10 to 100 nM, the IC50 (c-KIT kinase (uKIT)) was at most 10 nM and the IC50 (GIST 430 cells) was at most 10 nM.

Compound `COCCOc1cc(F)c2c(Nc3ccc(NC(=O)NCCC4(C(F)(F)F)CC4)cc3)ncnc2c1` [Example 17] has an IC50 (c-KIT kinase (uKIT)) of at most 10 nM and an IC50 (GIST 430 cells) of at most 10 nM.

`COCCOc1cc(F)c2c(Nc3ccc(NC(=O)NCCC(C)C)cc3)ncnc2c1` [Example 18] showed an IC50 (Ba/F3 KIT mutant cells; [5]) of at most 10 nM, an IC50 (Ba/F3 KIT mutant cells; [1]) of at most 10 nM and an IC50 (Ba/F3 KIT mutant cells; [2]) of at most 10 nM. The IC50 (Ba/F3 KIT mutant cells; [3]) was at most 10 nM, the IC50 (Ba/F3 KIT mutant cells; [4]) was 10 to 100 nM and the IC50 (c-KIT kinase (uKIT)) was at most 10 nM. The IC50 (GIST 430 cells) was 10 to 100 nM.

With `COCCOc1cc(F)c2c(Nc3ccc(NC(=O)NCCC4CC4)cc3)ncnc2c1` [Example 19] the IC50 (Ba/F3 KIT mutant cells; [5]) was at most 10 nM, the IC50 (Ba/F3 KIT mutant cells; [1]) was at most 10 nM and the IC50 (Ba/F3 KIT mutant cells; [2]) was at most 10 nM. It also gave an IC50 (Ba/F3 KIT mutant cells; [3]) of 10 to 100 nM, an IC50 (Ba/F3 KIT mutant cells; [4]) of 100 to 1000 nM and an IC50 (c-KIT kinase (uKIT)) of at most 10 nM. For the same compound, the IC50 (GIST 430 cells) was 10 to 100 nM.

Compound `COCCOc1cc(F)c2c(Nc3ccc(NC(=O)NCCC4CCCC4)cc3)ncnc2c1` [Example 21] has an IC50 (c-KIT kinase (uKIT)) of at most 10 nM and an IC50 (GIST 430 cells) of at most 10 nM.

Compound `COCCOc1cc(F)c2c(Nc3ccc(NC(=O)NCCC4CC(F)(F)C4)cc3)ncnc2c1` [Example 22] has an IC50 (c-KIT kinase (uKIT)) of at most 10 nM and an IC50 (GIST 430 cells) of at most 10 nM.

`COCCOc1cc(F)c2c(Nc3ccc(NC(=O)CCC(C)(C)F)cc3)ncnc2c1` [Example 23] showed an IC50 (c-KIT kinase (uKIT)) of 100 to 1000 nM and an IC50 (GIST 430 cells) of 100 to 1000 nM.

In the case of `COCCOc1cc(F)c2c(Nc3ccc(NC(=O)NCCC(C)(C)OC)nc3)ncnc2c1` [Example 24], the IC50 (c-KIT kinase (uKIT)) is reported as 100 to 1000 nM and the IC50 (GIST 430 cells) is reported as 100 to 1000 nM.

With `COCCOc1cc(F)c2c(Nc3ccc(NC(=O)NC4CC(C)(C)C4)nc3)ncnc2c1` [Example 25] the IC50 (Ba/F3 KIT mutant cells; [2]) was over 1000 nM, the IC50 (Ba/F3 KIT mutant cells; [3]) was over 1000 nM and the IC50 (c-KIT kinase (uKIT)) was 100 to 1000 nM. For the same compound, the IC50 (GIST 430 cells) was over 1000 nM.

`COCCOc1cc(F)c2c(Nc3ccc(NC(=O)NCCC(C)(C)C#N)cc3)ncnc2c1` [Example 26] gave an IC50 (Ba/F3 KIT mutant cells; [5]) of at most 10 nM, an IC50 (Ba/F3 KIT mutant cells; [1]) of at most 10 nM and an IC50 (Ba/F3 KIT mutant cells; [2]) of 10 to 100 nM. It also gave an IC50 (Ba/F3 KIT mutant cells; [3]) of 10 to 100 nM, an IC50 (Ba/F3 KIT mutant cells; [4]) of 10 to 100 nM and an IC50 (c-KIT kinase (uKIT)) of at most 10 nM. It also gave an IC50 (GIST 430 cells) of 10 to 100 nM.

`COCCOc1cc(F)c2c(Nc3ccc(NC(=O)NCCC4COC4)cc3)ncnc2c1` [Example 27] showed an IC50 (Ba/F3 KIT mutant cells; [2]) of over 1000 nM, an IC50 (Ba/F3 KIT mutant cells; [3]) of over 1000 nM and an IC50 (c-KIT kinase (uKIT)) of 100 to 1000 nM. It also gave an IC50 (GIST 430 cells) of over 1000 nM.

`COCCOc1cc(F)c2c(Nc3ccc(NC(=O)CCC(C)(C)OC)cc3)ncnc2c1` [Example 28] showed an IC50 (Ba/F3 KIT mutant cells; [1]) of 10 to 100 nM, an IC50 (Ba/F3 KIT mutant cells; [2]) of 10 to 100 nM and an IC50 (Ba/F3 KIT mutant cells; [3]) of 10 to 100 nM. The IC50 (Ba/F3 KIT mutant cells; [4]) was 100 to 1000 nM, the IC50 (c-KIT kinase (uKIT)) was 10 to 100 nM and the IC50 (GIST 430 cells) was 10 to 100 nM.

`COCCOc1cc(F)c2c(Nc3ccc(NC(=O)NCCC(C)(C)F)nc3)ncnc2c1` [Example 29] was tested, and the IC50 (Ba/F3 KIT mutant cells; [1]) was over 1000 nM, the IC50 (Ba/F3 KIT mutant cells; [2]) was over 1000 nM and the IC50 (Ba/F3 KIT mutant cells; [3]) was over 1000 nM. For the same compound, the IC50 (Ba/F3 KIT mutant cells; [4]) was over 1000 nM, the IC50 (c-KIT kinase (uKIT)) was 100 to 1000 nM and the IC50 (GIST 430 cells) was 100 to 1000 nM.
